Consider 43 molecules from PubChem BioAssay (NCI).

The structures appear in SMILES notation. Several values for one entry are separate records, joined by “and”; a condition that tells them apart may be missing. Equal values may be shown once.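 Tested at 5 concentrations; 48 h exposure; 96-well plates; endpoints linearly interpolated, else capped at highest concentration. Abbreviation: GI50, concentration required for 50% inhibition of growth. TGI: concentration producing complete growth inhibition.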 *1 amine or outer side, *2 acyl side, *3 side chain or, on linkers, in order; H or OH if unused. Where a SMILES comes first, the peptide text is derived from it. [ ]: non-standard residue; d: D form. The star is where a group is joined. X11 = C/C=C/CC(C)C(O)[C@H](N[*:1])C(=O)[*:2]; Leu(ol) = CC(C)C[C@H](N)CO; Iva = CC[C@](C)(N)C(=O)O; Octanoyl = CCCCCCCC(=O)*; Aib = CC(C)(N)C(=O)O Some results are limits rather than exact numbers.

This experiment deals with MDA-MB-468 breast. The experiment in a line: inhibition of tumour cell growth, NCI panel, 48 h.
In the case of `C/C=C/CC(C)C(O)[C@H](NC(=O)[C@@H]1CCCN1C(=O)C(C)(C)NC(=O)CCCCCCC)C(=O)N[C@@](C)(CC)C(=O)N[C@@H](CCC(N)=O)C(=O)N[C@H](CCC(N)=O)C(=O)NC(C)(C)C(=O)NC(C)(C)C(=O)N[C@@H](CCC(N)=O)C(=O)N[C@H](CC(C)C)C(=O)N[C@H](CO)CC(C)C` (stereo partly drawn) (Octanoyl-[Aib]P[X11][Iva]Q[dQ][Aib][Aib]Q[dL][Leu(ol)]), the GI50 is 1.68 µM and the TGI was 3.35 µM.

`Cc1nc(-c2cn3c(n2)-c2ccc(-c4cnn(C(C)(C)C(N)=O)c4)cc2OCC3)n(C(C)C)n1`: the GI50 is 0.134 µM and 0.0499 µM; the TGI is 1.55 µM and 0.822 µM. As to `CCN(CC)CCCNCc1cc(-c2ccccc2)nc2ccccc12`, the GI50 is 14.8 µM and the TGI came to 30.8 µM. As to `CNC(=O)c1ccccc1Nc1nc(Nc2cc(OC)c(OC)c(OC)c2)ncc1Br`, the GI50 is 0.0782 µM and the TGI came to 0.625 µM. As for `CS(=O)(=O)CCc1cccc(C(=O)c2cnn(-c3ccc(F)cc3)c2N)c1`, the GI50 was greater than 25 µM and the TGI was greater than 25 µM. With `[N-]=[N+]=NCCCCCC(=O)OC(C(=O)c1ccccc1)c1cccc(OCC(=O)NCCOCCOCCNC(=O)CCCC[C@@H]2SC[C@@H]3NC(=O)N[C@@H]32)c1` (stereo not given in full), the GI50 is 27.5 µM and the TGI was greater than 100 µM.

`Cc1nc2ccccc2c(/C=C/c2ccc(Cl)cc2)c1C(=O)/C=C/c1ccc(C(F)(F)F)cc1`: the GI50 is 1.3 µM and the TGI stood at 2.93 µM. Turning to `O=Nc1ccc(NO)c2ccccc12`, the GI50 is 13.9 µM and the TGI is 44.4 µM.

For `CCN(CC)CC(O)CNc1c2ccc([N+](=O)[O-])cc2nc2cc(OC)c(OC)cc12` (stereo not given), the GI50 is 0.172 µM and the TGI was 0.475 µM. For `O=C(CCC(=O)N1CCOCC1)OCCCCCCSc1ccc([N+](=O)[O-])c2nonc12`, in that order: 1.11 µM and 2.9 µM. For `O=C1C=CC(=Nc2cc(Br)c(O)c(Br)c2)C=C1`, in that order: 10.5 µM and 30.5 µM.

On to `O=C(O)C1(C(=O)O)CCC1.[NH2-].[NH2-].[Pt+2]`, for which the GI50 is 43.7 µM and the TGI is greater than 216 µM. With `Cc1cc(N2CCOCC2)nc(N[C@@H]2CCC[C@H](Nc3ccnc4cc(Cl)ccc34)C2)n1`, the GI50 was 1.76 µM and the TGI amounted to 4.04 µM. For `Oc1ccc(-c2nc3ccccc3s2)cc1CN(Cc1ccccn1)Cc1ccccn1`, the GI50 was 2.48 µM and the TGI was 17 µM. For `COc1ccc([C@@H]2C(=O)N(c3cc(OC)c(OC)c(OC)c3)[C@H]2c2ccc(OC)c(O)c2)cc1`, the GI50 is 0.0245 µM and the TGI was found to be 0.0671 µM. For `COc1cc(-c2cc(O)c(-c3ccc4ccccc4n3)c(=O)[nH]2)cc(OC)c1OC`, in that order: 3.38 µM and 26 µM. For `CC(C)=CCC/C(C)=C/CC/C(C)=C/CSc1ccccc1C(=O)O`, in that order: 27.5 µM and greater than 90 µM. Turning to `CC(C)=CCC[C@](C)(O)[C@H]1CC[C@]2(C)[C@@H]1CC[C@@H]1[C@@]3(C)CC/C(=N/O)C(C)(C)[C@@H]3CC[C@]12C`, the GI50 was 8.7 µM and the TGI is 71.3 µM. In the case of `O=C(c1ccccc1)C1OC1c1ccc([N+](=O)[O-])cc1` (stereo not given), the GI50 is 2.28 µM and the TGI is 6.79 µM. Turning to `O=C(c1ccccc1)C(CN1CCCCC1)c1ccccc1` (stereo not given), the GI50 was 0.536 µM and the TGI came out at 1.9 µM. For the molecule `c1ccc(CN2COc3c(ccc4c3OCN(Cc3ccccc3)C4)C2)cc1`, the GI50 is 0.796 µM and the TGI came out at 5.2 µM.

In the case of `O=c1cc(-c2cccc3c2Sc2ccccc2S3)oc(N2CCOCC2)c1`, the GI50 is 2.8 µM and the TGI was determined as 14.5 µM. With `O=C(Nc1ccncc1)C(=O)c1cn(S(=O)(=O)c2ccc(Cl)cc2)c2ccccc12`, the GI50 is 0.746 µM and the TGI was 9.11 µM.

For the molecule `C=CCN(C)S(=O)(=O)/N=C1\NC(=O)NC1=C(Cl)Cl`, the GI50 was 0.578 µM and the TGI is 15.6 µM. The corresponding values for `COc1cccc(NC(=O)c2sc3nc(C)c(C(O)c4ccccc4)cc3c2N)c1` (stereo not given) are 0.27 µM and 30.2 µM.

On to `CN(Cc1ccccc1)c1ccc(CO)c(Cl)c1`, for which the GI50 is 0.0795 µM and the TGI worked out at 0.248 µM. For `COc1ccc2c(=O)cc(C(Cl)(Cl)Cl)oc2c1`, the GI50 is 0.383 µM and the TGI is 14.4 µM. For `NCCOCCOCCNc1nc(-c2ccccc2)nc(N2CCN(c3ccccn3)CC2)n1`, in that order: 7.23 µM and 20.6 µM.

Consider `COc1cc(NCCCN=C(N)NC(N)=NC(C)C)c2ncccc2c1`, for which the GI50 is 0.112 µM and the TGI turned out to be 0.501 µM. Turning to `CC(=O)C1=C(O)C=C2Oc3c(C(=O)/C=C/c4c(Cl)cccc4Cl)c(O)c(C)c(O)c3[C@]2(C)C1=O`, the GI50 was 1.19 µM and the TGI was found to be 4.89 µM. The corresponding values for `CC(=O)c1c(C)[nH]c(-c2nc3ccc(N4CCN(C)CC4)cc3[nH]2)c1-c1ccc(N(C)C)cc1` are 0.2 µM and 2.89 µM. With `O=C(Cc1ccc(F)c(F)c1)Nc1cc(C2(C(F)(F)F)CC2)nn1Cc1ccccc1`, the GI50 was 2.67 µM and the TGI was found to be 9.41 µM.

On to `Cc1nnc(-c2cccc(-c3ccc(C(=O)NCC4CC4)cc3)c2)o1`, for which the GI50 is greater than 25 µM and the TGI was greater than 25 µM. In the case of `Nc1c(C(=O)Nc2cccc(F)c2)sc2nc3c(cc12)C(=O)CCC3`, the GI50 was 0.159 µM and the TGI is greater than 100 µM. Take `O=C(COc1cc(O)c2c(=O)cc(-c3ccccc3)oc2c1)Nc1ccccc1C(F)(F)F`: the GI50 was 4.95 µM and the TGI is 35.8 µM.

As for `COCc1cc(C(=O)Nc2cc([C@H]3CC[C@@H](OC(=O)NC(C)C)C3)[nH]n2)n(C)n1`, the GI50 is 13.5 µM and the TGI is 35 µM. As for `COC(=O)c1cc(O)c2cc3c(cc2c1-c1cc(OC)c(OC)c(OC)c1)OCO3`, the GI50 is 0.411 µM and the TGI was 44.7 µM. For `C=CC(=O)Nc1cc(C)ccc1Nc1nc(Nc2cc(OC)ncc2C)ncc1C(F)(F)F`, in that order: 1.86 µM and 6.06 µM. For `O=C(NCCCO)c1cc(Cl)ccc1O`, the GI50 was 1.19 µM and the TGI turned out to be 7.18 µM. As for `C[n+]1c2cc(N)ccc2cc2ccc(N)cc21`, the GI50 was 342 nM [middle of 4 runs]. For `O=C(Nc1ccc(-n2ccc3c(NC(=O)c4ccccc4)ncnc32)cc1)Nc1ccc(Cl)c(Cl)c1`, the GI50 was 1.92 µM and the TGI came to 8.04 µM. As for `CC(C)(C)c1cc(-n2c(-c3ccc(Cl)cc3)nc3cc(C(=O)Nc4ccc(Cl)cc4)ccc32)n[nH]1`, the GI50 is 4.88 µM and the TGI was greater than 100 µM. Regarding `C=C1CCC2C3(C)COC(c4ccccc4)OC3CCC2(C)C1/C=C/C1=CCOC1=O` (stereo not given), the GI50 was 2.49 µM and the TGI was found to be 6.41 µM.
